Experimental data reported in patent US10111863B2 (CYDEX PHARMACEUTICALS, INC., priority 2009, dated 2018).
Structures can show the parent of a compound that is named as a salt. Where two headings read alike, the source gives them in different places. Each block holds one compound with its values, some of them ahead of it.

Experiments:
[1] = cited from earlier work
platelet = settings: healthy subjects; cited from earlier work
[2] = Phase solubility of prasugrel in aqueous SBE6.5-β-CD or HP4.3-β-CD at pH 4; format: physicochemical; settings: for solubility: thermodynamic from solid
Source text: The results of the phase solubility study at pH 4 are also depicted graphically in FIG. 3. […] Note that the data obtained for the 10% w/v cyclodextrin derivatives was not included in the best-fit line that appears in FIG. 3.

[3] = Stability of prasugrel in 30% w/v SBE6.5-β-CD or HP4.3-β-CD at pH 4 (HPLC); format: physicochemical
platelet aggregation = settings: after treatment is stopped; cited from earlier work
[4] = Phase solubility of prasugrel in aqueous SBE6.5-β-CD at pH 7.4; format: physicochemical; settings: for solubility: aqueous solution, pH 7.4, aqueous with cosolvent or surfactant or cyclodextrin, thermodynamic from solid, Prasugrel Solubility
Source text: The results of the phase solubility study at pH 7.4 are also depicted graphically in FIG. 2.

[5] = Stability of prasugrel in 30% w/v SBE6.5-β-CD at pH 3, 4 and 6 (HPLC); format: physicochemical; settings: for decrease in prasugrel concentration: 30% w/v SBE6.5-β-CD
Protocol: The solutions were sampled at 0, 2, 7 and 53 hours. […] The data obtained from the stability study is provided graphically in FIG. 5.

Compound: CC(=O)Oc1cc2c(s1)CCN(C(C(=O)C1CC1)c1ccccc1F)C2 (racemic) [Prasugrel hydrochloride]
pKa value [1]: 5.1 | solubility ([1]; pH 1-4): soluble to slightly soluble | solubility ([1]; pH 5): very slightly soluble | solubility ([1]; pH 6-7): practically insoluble

solubility ([2]; aqueous HP4.3-β-CD solution, pH 4, aqueous with cosolvent or surfactant or cyclodextrin, Prasugrel Solubility w/ HP4.3-β-CD, HP4.3-β-CD 30% w/v): 645 µg/mL | solubility ([2]; aqueous SBE6.5-β-CD solution, pH 4, aqueous with cosolvent or surfactant or cyclodextrin, Prasugrel Solubility w/ SBE6.5-β-CD, SBE6.5-β-CD 30% w/v): 664 µg/mL | solubility ([2]; aqueous solution, pH 4, aqueous buffer, Prasugrel Solubility w/ HP4.3-β-CD, cyclodextrin derivative 0% w/v): 206 µg/mL | solubility ([2]; aqueous solution, pH 4, aqueous buffer, Prasugrel Solubility w/ SBE6.5-β-CD, cyclodextrin derivative 0% w/v): 206 µg/mL | solubility ([2]; aqueous solution, pH 4, aqueous with cosolvent or surfactant or cyclodextrin, Prasugrel Solubility w/ HP4.3-β-CD, HP4.3-β-CD 5% w/v): 256 µg/mL | solubility ([2]; aqueous solution, pH 4, aqueous with cosolvent or surfactant or cyclodextrin, Prasugrel Solubility w/ HP4.3-β-CD, HP4.3-β-CD 10% w/v): 474 µg/mL | solubility ([2]; aqueous solution, pH 4, aqueous with cosolvent or surfactant or cyclodextrin, Prasugrel Solubility w/ HP4.3-β-CD, HP4.3-β-CD 20% w/v): 524 µg/mL | solubility ([2]; aqueous solution, pH 4, aqueous with cosolvent or surfactant or cyclodextrin, Prasugrel Solubility w/ HP4.3-β-CD, HP4.3-β-CD 40% w/v): 875 µg/mL | solubility ([2]; aqueous solution, pH 4, aqueous with cosolvent or surfactant or cyclodextrin, Prasugrel Solubility w/ SBE6.5-β-CD, SBE6.5-β-CD 5% w/v): 268 µg/mL | solubility ([2]; aqueous solution, pH 4, aqueous with cosolvent or surfactant or cyclodextrin, Prasugrel Solubility w/ SBE6.5-β-CD, SBE6.5-β-CD 10% w/v): 736 µg/mL | solubility ([2]; aqueous solution, pH 4, aqueous with cosolvent or surfactant or cyclodextrin, Prasugrel Solubility w/ SBE6.5-β-CD, SBE6.5-β-CD 20% w/v): 580 µg/mL | solubility ([2]; aqueous solution, pH 4, aqueous with cosolvent or surfactant or cyclodextrin, Prasugrel Solubility w/ SBE6.5-β-CD, SBE6.5-β-CD 40% w/v): 927 µg/mL | prasugrel solubility as a function of the derivatized cyclodextrin concentration ([2]; both HP4.3-β-CD and SBE6.5-β-CD, FIG. 3): increased linearly | stability in aqueous solution containing a sulfoalkyl ether-β-cyclodextrin versus pH [3]: more stable at pH 4 or less | stability in SBE6.5-β-CD versus HP4.3-β-CD ([3]; 30% w/v solutions, pH 4, 0.1 M phosphate buffer, FIG. 6): nearly identical stability | Prasugrel Solubility ([4]; SBE6.5-β-CD 5% w/v): 0.0054% w/v | Prasugrel Solubility ([4]; SBE6.5-β-CD 10% w/v): 0.0124% w/v | Prasugrel Solubility ([4]; SBE6.5-β-CD 20% w/v): 0.0252% w/v | Prasugrel Solubility ([4]; SBE6.5-β-CD 30% w/v): 0.0379% w/v | prasugrel solubility as a function of the derivatized cyclodextrin concentration ([4]; SBE6.5-β-CD, FIG. 2): increased linearly | solubility ([4]; SBE6.5-β-CD 5% w/v): 54 µg/mL | solubility ([4]; SBE6.5-β-CD 10% w/v): 124 µg/mL | solubility ([4]; SBE6.5-β-CD 20% w/v): 252 µg/mL | solubility ([4]; SBE6.5-β-CD 30% w/v): 379 µg/mL | solubility ([4]; SBE6.5-β-CD 40% w/v): 515 µg/mL | decrease in prasugrel concentration ([5]; pH 3, 0.1 M phosphate buffer, after 30 hours): less than 10% | decrease in prasugrel concentration ([5]; pH 3, 0.1 M phosphate buffer, after about 55 hours): less than 20% | decrease in prasugrel concentration ([5]; pH 4, 0.1 M phosphate buffer, after 30 hours): less than 10% | decrease in prasugrel concentration ([5]; pH 4, 0.1 M phosphate buffer, after about 55 hours): less than 20% | decrease in prasugrel concentration ([5]; pH 6, 0.1 M phosphate buffer, after 30 hours): about 20% | decrease in prasugrel concentration ([5]; pH 6, 0.1 M phosphate buffer, after about 55 hours): about 36% | stability in aqueous solution containing a sulfoalkyl ether-β-cyclodextrin versus pH ([5]; pH 3, 4 and 6 compared): more stable at pH 4 or less
Compound: CC(=O)Oc1cc2c(s1)CCN(C(C(=O)C1CC1)c1ccccc1F)C2 (racemic) [Prasugrel, 5-[(1RS)-2-cyclopropyl-1-(2-fluorophenyl)-2-oxoethyl]-4,5,6,7-tetrahydrothieno[3,2-c]pyridin-2-yl acetate]
platelet inhibition and response compared to clopidogrel (platelet): greater platelet inhibition and more consistent response | time to return to baseline levels of platelet aggregation (platelet aggregation): 7 to 10 days
